Assay: Example 2: liver biomarkers (albumin, gamma glutamyl transferase, total bilirubin, ALT, AST, ALP) in short bowel syndrome patients, every four weeks for 24 weeks; also sorted by >10% change from baseline
Format: in vivo, Human
Conditions: 0.05 mg/kg/d
Experimental: To further confirm the results of Example 1, a further study was conducted involving more individuals and additional diagnostic biomarkers. Human patients with short bowel syndrome were divided into two groups: a control group (43 total individuals) to receive placebo, and an experimental group (42 total individuals) to receive teduglutide at 0.05 mg/kg/day throughout the study. Patients were treated by subcutaneous injection of placebo or the appropriate dose of teduglutide. Known biomarkers of liver function were monitored every four weeks, for 24 weeks. The liver biomarkers tested included albumin, gamma glutamyl transferase, total bilirubin, ALT and AST and ALP. Before administration of placebo or teduglutide, diagnostic biomarker levels were tested to establish a baseline for each individual.
To determine the effect of GLP-2 on the levels of the diagnostic biomarkers, the average level of each biomarker was measured for the placebo and teduglutide treated groups for each visit. Furthermore, the average change from baseline was calculated using the established baseline values. For FIGS. 17-28, p-values were calculated using the t-test.
P values are provided, which were calculated for each distribution of biomarker changes for each week using the chi-squared test.

For `CC[C@H](C)[C@H](NC(=O)[C@H](Cc1ccccc1)NC(=O)[C@H](CC(=O)O)NC(=O)[C@H](CCCNC(=N)N)NC(=O)[C@H](C)NC(=O)[C@H](C)NC(=O)[C@H](CC(C)C)NC(=O)[C@H](CC(N)=O)NC(=O)[C@H](CC(=O)O)NC(=O)[C@H](CC(C)C)NC(=O)[C@@H](NC(=O)[C@@H](NC(=O)[C@H](CC(N)=O)NC(=O)[C@H](CCSC)NC(=O)[C@H](CCC(=O)O)NC(=O)[C@H](CC(=O)O)NC(=O)[C@H](CO)NC(=O)[C@H](Cc1ccccc1)NC(=O)[C@H](CO)NC(=O)CNC(=O)[C@H](CC(=O)O)NC(=O)CNC(=O)[C@@H](N)Cc1c[nH]cn1)[C@@H](C)O)[C@@H](C)CC)C(=O)N[C@@H](CC(N)=O)C(=O)N[C@@H](Cc1c[nH]c2ccccc12)C(=O)N[C@@H](CC(C)C)C(=O)N[C@H](C(=O)N[C@@H](CCC(N)=O)C(=O)N[C@H](C(=O)N[C@@H](CCCCN)C(=O)N[C@H](C(=O)N[C@H](C(=O)N[C@@H](CC(=O)O)C(=O)O)[C@@H](C)O)[C@@H](C)CC)[C@@H](C)O)[C@@H](C)CC` [teduglutide], the “Bilirubin: subjects Within 10% of Baseline” value (Week 8, m = 40) was 10 (25.0%) n (%), the “Bilirubin: subjects with >10% decrease from Baseline” value (Week 8, m = 40) was 20 (50.0%) n (%) and the “Bilirubin: subjects with >10% increase from Baseline” value (Week 8, m = 40) was 10 (25.0%) n (%). For the same molecule, the “ALKALINE PHOSPHATASE Change from Baseline Median” value (Week 12) was −23 U/L, the “ALT Change from Baseline, Max” value (Week 12) was 35 U/L and the “ALT Change from Baseline, Mean” value (Week 12) was −9.8 U/L. For the same molecule, the “ALT Change from Baseline, Median” value (Week 12) was −4 U/L, the “ALT Change from Baseline, Min” value (Week 12) was −62 U/L and the “ALT Observed Value, Max” value (Week 12) was 94 U/L. For the same molecule, the “ALT Observed Value, Min” value (Week 12) was 11 U/L, the “AST Change from Baseline, Max” value (Week 12) was 34 U/L and the “AST Change from Baseline, Mean” value (Week 12) was −4.2 U/L. For the same molecule, the “AST Change from Baseline, Median” value (Week 12) was −5 U/L, the “AST Change from Baseline, Min” value (Week 12) was −39 U/L and the “AST Observed Value, Max” value (Week 12) was 60 U/L. For the same molecule, the “AST Observed Value, Median” value (Week 12) was 25 U/L, the “AST Observed Value, Min” value (Week 12) was 9 U/L and the “Albumin Change from Baseline, Max” value (Week 12) was 5 g/L. The “Albumin Change from Baseline, Mean” value (Week 12) was -0.9 g/L, the “Albumin Change from Baseline, Median” value (Week 12) was -1 g/L and the “Albumin Change from Baseline, Min” value (Week 12) was -7 g/L. For the same molecule, the “Albumin Observed Value, Max” value (Week 12) was 47 g/L, the “Albumin Observed Value, Median” value (Week 12) was 41 g/L and the “Albumin Observed Value, Min” value (Week 12) was 35 g/L. For the same molecule, the “Alkaline Phosphatase Change from Baseline, Max” value (Week 12) was 25 U/L, the “Alkaline Phosphatase Change from Baseline, Min” value (Week 12) was −127 U/L and the “Alkaline Phosphatase Observed Value, Max” value (Week 12) was 304 U/L. The “Alkaline Phosphatase Observed Value, Median” value (Week 12) was 98 U/L, the “Alkaline Phosphatase Observed Value, Min” value (Week 12) was 52 U/L and the “Bilirubin Change from Baseline, Max” value (Week 12) was 5.2 µmol/L. For the same molecule, the “Bilirubin Change from Baseline, Median” value (Week 12) was -0.05 µmol/L, the “Bilirubin Change from Baseline, Min” value (Week 12) was -13.2 µmol/L and the “Bilirubin Observed Value, Max” value (Week 12) was 57.8 µmol/L. The “Bilirubin Observed Value, Min” value (Week 12) was 3.2 µmol/L, the “Gamma Glutamyl Transferase Change from Baseline, Max” value (Week 12) was 56 U/L and the “Gamma Glutamyl Transferase Change from Baseline, Mean” value (Week 12) was −8.1 U/L. For the same molecule, the “Gamma Glutamyl Transferase Change from Baseline, Median” value (Week 12) was −4 U/L, the “Gamma Glutamyl Transferase Change from Baseline, Min” value (Week 12) was −162 U/L and the “Gamma Glutamyl Transferase Observed Value, Max” value (Week 12) was 240 U/L. For the same molecule, the “Gamma Glutamyl Transferase Observed Value, Median” value (Week 12) was 51 U/L, the “Gamma Glutamyl Transferase Observed Value, Min” value (Week 12) was 8 U/L and the “ALT: subjects Within 10% of Baseline” value (Week 12, m = 34) was 10 (29.4%) n (%). The “ALT: subjects with >10% decrease from Baseline” value (Week 12, m = 34) was 17 (50.0%) n (%), the “ALT: subjects with >10% increase from Baseline” value (Week 12, m = 34) was 7 (20.6%) n (%) and the “AST: subjects Within 10% of Baseline” value (Week 12, m = 34) was 6 (17.6%) n (%). The “AST: subjects with >10% decrease from Baseline” value (Week 12, m = 34) was 21 (61.8%) n (%), the “AST: subjects with >10% increase from Baseline” value (Week 12, m = 34) was 7 (20.6%) n (%) and the “Albumin: subjects Within 10% of Baseline” value (Week 12, m = 34) was 31 (91.2%) n (%). For the same molecule, the “Albumin: subjects with >10% decrease from Baseline” value (Week 12, m = 34) was 2 (5.9%) n (%), the “Albumin: subjects with >10% increase from Baseline” value (Week 12, m = 34) was 1 (2.9%) n (%) and the “Alkaline Phosphatase: subjects Within 10% of Baseline” value (Week 12, m = 34) was 6 (17.6%) n (%). The “Alkaline Phosphatase: subjects with >10% decrease from Baseline” value (Week 12, m = 34) was 23 (67.6%) n (%), the “Alkaline Phosphatase: subjects with >10% increase from Baseline” value (Week 12, m = 34) was 5 (14.7%) n (%) and the “Bilirubin: subjects Within 10% of Baseline” value (Week 12, m = 34) was 10 (29.4%) n (%). The “Bilirubin: subjects with >10% decrease from Baseline” value (Week 12, m = 34) was 15 (44.1%) n (%), the “Bilirubin: subjects with >10% increase from Baseline” value (Week 12, m = 34) was 9 (26.5%) n (%) and the “ALT Change from Baseline, Max” value (Week 16) was 45 U/L. The “ALT Change from Baseline, Mean” value (Week 16) was −8.0 U/L, the “ALT Change from Baseline, Median” value (Week 16) was −3 U/L and the “ALT Change from Baseline, Min” value (Week 16) was −64 U/L. The “ALT Observed Value, Max” value (Week 16) was 140 U/L, the “ALT Observed Value, Min” value (Week 16) was 13 U/L and the “AST Change from Baseline, Max” value (Week 16) was 20 U/L. The “AST Change from Baseline, Mean” value (Week 16) was −3.3 U/L, the “AST Change from Baseline, Median” value (Week 16) was −3 U/L and the “AST Change from Baseline, Min” value (Week 16) was −42 U/L. The “AST Observed Value, Max” value (Week 16) was 65 U/L, the “AST Observed Value, Median” value (Week 16) was 26 U/L and the “AST Observed Value, Min” value (Week 16) was 9 U/L. For the same molecule, the “Albumin Change from Baseline, Max” value (Week 16) was 3 g/L, the “Albumin Change from Baseline, Mean” value (Week 16) was -0.7 g/L and the “Albumin Change from Baseline, Median” value (Week 16) was -0.5 g/L. The “Albumin Change from Baseline, Min” value (Week 16) was -5 g/L, the “Albumin Observed Value, Max” value (Week 16) was 49 g/L and the “Albumin Observed Value, Median” value (Week 16) was 42 g/L. For the same molecule, the “Albumin Observed Value, Min” value (Week 16) was 32 g/L, the “Alkaline Phosphatase Change from Baseline, Max” value (Week 16) was 71 U/L and the “Alkaline Phosphatase Change from Baseline, Min” value (Week 16) was −104 U/L. For the same molecule, the “Alkaline Phosphatase Observed Value, Max” value (Week 16) was 311 U/L, the “Alkaline Phosphatase Observed Value, Min” value (Week 16) was 46 U/L and the “Bilirubin Change from Baseline, Max” value (Week 16) was 5.2 µmol/L. For the same molecule, the “Bilirubin Change from Baseline, Min” value (Week 16) was -37.7 µmol/L, the “Bilirubin Observed Value, Max” value (Week 16) was 27.4 µmol/L and the “Bilirubin Observed Value, Mean” value (Week 16) was 9.40 µmol/L. The “Bilirubin Observed Value, Median” value (Week 16) was 8.1 µmol/L, the “Bilirubin Observed Value, Min” value (Week 16) was 3.4 µmol/L and the “Gamma Glutamyl Transferase Change from Baseline, Max” value (Week 16) was 90 U/L. The “Gamma Glutamyl Transferase Change from Baseline, Mean” value (Week 16) was −7.0 U/L, the “Gamma Glutamyl Transferase Change from Baseline, Median” value (Week 16) was −5.5 U/L and the “Gamma Glutamyl Transferase Change from Baseline, Min” value (Week 16) was −161 U/L. The “Gamma Glutamyl Transferase Observed Value, Max” value (Week 16) was 294 U/L, the “Gamma Glutamyl Transferase Observed Value, Median” value (Week 16) was 54 U/L and the “Gamma Glutamyl Transferase Observed Value, Min” value (Week 16) was 6 U/L. For the same molecule, the “ALT: subjects Within 10% of Baseline” value (Week 16, m = 38) was 10 (26.3%) n (%), the “ALT: subjects with >10% decrease from Baseline” value (Week 16, m = 38) was 20 (52.6%) n (%) and the “ALT: subjects with >10% increase from Baseline” value (Week 16, m = 38) was 8 (21.1%) n (%). The “AST: subjects Within 10% of Baseline” value (Week 16, m = 38) was 12 (31.6%) n (%), the “AST: subjects with >10% decrease from Baseline” value (Week 16, m = 38) was 19 (50.0%) n (%) and the “AST: subjects with >10% increase from Baseline” value (Week 16, m = 38) was 7 (18.4%) n (%). For the same molecule, the “Albumin: subjects Within 10% of Baseline” value (Week 16, m = 38) was 36 (94.7%) n (%), the “Albumin: subjects with >10% decrease from Baseline” value (Week 16, m = 38) was 2 (5.3%) n (%) and the “Albumin: subjects with >10% increase from Baseline” value (Week 16, m = 38) was 0 n (%).
